Data as given in US11179294B2, “Preservative removal from eye drops” (TearClear Corp., priority 2019, dated 2021).
Counter-ions that a name gives are not always drawn. Blank lines part the entries; values can stand above or below the molecule they belong to.

Assays:
Format in all cases: physicochemical
[1] = Bimatoprost API/BAK uptake drop test through tip loaded with recrystallized stearic acid flakes (Table 8)
Protocol: Bimatoprost ophthalmic solution (20 mL) was formulated by combining 0.0027 g of Citric Acid Anhydrous (Alfa Aesar L #X16D073), 0.0536 g of Sodium phosphate dibasic, heptahydrate (Fisher chemical L #187384) and 0.1619 g of Sodium Chloride (Fisher chemical L #177082) to 20 g stock solution (2NB70.1) of 300 ppm Bimatoprost and 50 ppm BAK.
Bimatoprost formulation (3 mL), was placed into a 5 mL dropper bottle. Recrystallized Stearic acid flakes (0.116 g) was loaded into a proprietary testing tip. The tip was then placed on the dropper bottle containing the solution.
In a simulated usage, two drops are dispensed and diluted according to the proper method for HPLC analysis. Additional pairs of drops are dispensed at intervals no less than 1 hour apart. A standard consisting of the starting material is taken and diluted according to the specific HPLC method. Then each pair of drops was analyzed on the HPLC. The uptake is determined by comparing the area counts of the starting solution to the area counts of the drop. Bimatoprost has a similar linear signal range as BAK in this formulation so all data is collected from a single drop test. […] In successive drops, the BAK is not detected (e.g., is undetectable, is below a detectable threshold based on UV absorption, etc.).

[2] = Timolol Maleate/Brimonidine tartrate BAK uptake drop test through tip loaded with 20/80 polypropylene/stearic acid powder (Table 7); details: solution 2NB62 through 20/80 blend tip
Protocol: (§1) A Timolol Maleate/Brimonidine tartrate ophthalmic solution was prepared (e.g., 2NB62, a Combigan analogue, etc) according to Table 5. The following were added to a 500 mL bottle: 2.151 g of Sodium Phosphate dibasic heptahydrate (Fisher Chemical L #187384), 0.432 g of Sodium Phosphate monobasic monohydrate (Fisher Chemical L #188731), 0.505 g of 0.991% BAK solution (Lot 2NB61), 0.202 g of Brimonidine Tartrate (BOC Sciences L #BV19V06171), and 0.681 g of Timolol Maleate (BOC Sciences L #BS19V04062). Ultra-pure water (100.017 g) of was added and stirred on a rotary shaker overnight to dissolve. Three mL of the solution, 2NB62, was placed into a 5 mL dropper bottle. Stearic acid/polypropylene powder (0.32 g) was loaded into a proprietary testing tip. The tip was then placed on the dropper bottle containing the solution.
In a simulated usage, two drops are dispensed and diluted according to the proper method for HPLC analysis. […] Then each individual drop is analyzed on the HPLC. The uptake is determined by comparing the area counts from the HPLC peaks of the starting solution to the area counts of the drop.
A separate, parallel drop test was performed using the same materials to test BAK uptake. […] In successive drops, the BAK is not detected (e.g., is undetectable, is below a detectable threshold based on UV absorption, etc.).

[3] = Lifitegrast BAK uptake drop test through tip loaded with 50/50 polypropylene/stearic acid blend (Table 10)
Protocol: (§2) A Lifitegrast ophthalmic solution (e.g., Xiidra mimic in the table) was prepared, consisting of 5.0% Lifitegrast (BOC Sciences Lot B19V08071), 2.0% Sodium Phosphate Dibasic Anhydrous (J. T. Baker Lot 0000236665), 0.5% Sodium thiosulfate pentahydrate (Fisher Chemical Lot 181801), and 0.005% BAK Aldrich 12063 (Lot #BCBW4741).
(§3) Three mL of the Lifitegrast formulation was placed into a 5 mL dropper bottle. 50/50 polypropylene/steric acid blend (0.328 g) was loaded into a proprietary testing tip. The tip was then placed on the dropper bottle containing the solution.
(§4) In a simulated usage, two drops are dispensed and diluted according to the proper method for HPLC analysis. Due to the relatively high concentration of Lifitegrast, 2 separate drops tests were done for the active pharmaceutical ingredient and BAK. A standard consisting of the starting material is taken and diluted according to the specific HPLC method. Then each pair of drops was analyzed on the HPLC. The uptake is determined by comparing the area counts of the HPLC peaks of the starting solution to the area counts of the drop.

[4] = Lifitegrast API uptake drop test through tip loaded with 50/50 polypropylene/stearic acid blend (Table 9); details: 5.0% Lifitegrast formulation, 0.328 g 50/50 blend in tip
Protocol: as §2, §3, §4

[5] = Timolol Maleate/Brimonidine tartrate API uptake drop test through tip loaded with 20/80 polypropylene/stearic acid powder (Table 6); details: solution 2NB62, 0.32 g stearic acid/polypropylene powder in tip, HPLC area counts of drops vs starting solution
Protocol: as §1
In a simulated usage, two drops are dispensed and diluted according to the proper method for HPLC analysis. Additional pairs of drops are dispensed at intervals no less than 1 hour (hr) apart. A standard consisting of the starting material is taken and diluted according to the specific HPLC method. Then each individual drop is analyzed on the HPLC. The uptake is determined by comparing the area counts from the HPLC peaks of the starting solution to the area counts of the drop.

[6] = 300 ppm Bimatoprost / 50 ppm BAK formulation, 0.116 g recrystallized stearic acid flakes in tip

Molecule: Benzalkonium chloride [BAK]
BAK in successive drops ([2]; drops after the first, UV detection): not detected
BAK in first drop, share of starting BAK ([2]; first drop): about 5%
BAK after passing through the flakes [1, 6]: eliminated
BAK in successive drops ([1]; successive drops, recrystallized stearic acid flakes tip): not detected
BAK in later drops ([3]; drops after the first, Lifitegrast formulation through 50/50 blend tip): not detectable
BAK in first drop ([3]; first drop, Lifitegrast formulation with 0.005% BAK through 50/50 blend tip): only a small amount

Molecule: CC(C)(C)NC[C@H](O)COc1nsnc1N1CCOCC1 [Timolol, Timolol Maleate]
API concentration after passing through the powder in the tip [5]: neither the concentration of Timolol nor Brimonidine are significantly affected

Molecule: Brimonidine Tartrate
API concentration after passing through the powder in the tip [5]: neither the concentration of Timolol nor Brimonidine are significantly affected

The next lines start with the values.

Bimatoprost concentration after passing through the flakes [1, 6]: not significantly reduced
Molecule: CCNC(=O)CCC/C=C\C[C@@H]1[C@@H](/C=C/[C@@H](O)CCc2ccccc2)[C@H](O)C[C@@H]1O [Bimatoprost]

Lifitegrast passage through the tip [4]: not hindered
Molecule: CS(=O)(=O)c1cccc(C[C@H](NC(=O)c2c(Cl)cc3c(c2Cl)CCN(C(=O)c2ccc4ccoc4c2)C3)C(=O)O)c1 [Lifitegrast]
